Results: PMC5353710, “Structural insights into the γ-lactamase activity and substrate enantioselectivity of an isochorismatase-like hydrolase from Microbacterium hydrocarbonoxydans” (Scientific Reports, 2017)

Experiments:
[1] = target: T1, MhIHL (Mh33H4-5540) (Microbacterium hydrocarbonoxydans, UniProt A0A0K0XHU0, C111A); settings: inactive variant; crystal soaked in 250 mM ligand for 1.5 h; active site
[2] = target: T1, MhIHL (Mh33H4-5540); settings: inactive variant; crystal soaked in 500 mM ligand for 10 min; active site

Row | Compound | X-ray crystal structure, 1.99 Å [1] | X-ray crystal structure, 1.79 Å [2]
1 | O=C1N[C@H]2C=C[C@@H]1C2 [(−)-γ-lactam, 2-Azabicyclo[2.2.1]hept-5-en-3-one] | The final crystals of MhIHL–(−)-γ-lactam complex were obtained by soaking the crystal | –
2 | O=C1N[C@@H]2C=C[C@H]1C2 [(+)-γ-lactam, 2-Azabicyclo[2.2.1]hept-5-en-3-one] | – | The final MhIHL–(+)-γ-lactam complex crystals were obtained by soaking the crystal
